For this experiment, the system named is P. falciparum 3D7 in RBCs, SYBR Green DNA fluorescence. Briefly: growth inhibition of P. falciparum 3D7, dose response, 3D7 strain, red blood cells, SYBR Green, cherry-picked (AID 652047).

SMILES strings stand for the structures. Values joined by “and” are separate entries in the source; they are usually repeats but may differ in a detail not shown here. Identical values can stand only once.

With `Cc1cccc(N2CCN(C(=O)C3COc4ccccc4O3)CC2)c1C` (centres undefined), the AC35 is 34.3 µM.

With `C=C(C)COc1ccc(-c2[nH]ncc2-c2ccc(Br)cc2)c(O)c1`, the AC35 was 3.55 µM.

Consider `O=c1c2ccccc2nc(-c2cccc(Cl)c2)n1O`, for which the AC35 was 25.4 µM.

Turning to `Cc1ccc(S(=O)(=O)Nc2ccc(O)c3cccnc23)cc1`, the AC35 is 7.02 µM.

On to `O=C(O)c1ccccc1NC(c1ccccc1)c1ccc2cccnc2c1O` (centres undefined), for which the AC35 was 10.8 µM.

Turning to `CCOC(=O)c1cc2c(=Cc3ccc(N(C)C)cc3)c3ccccc3n2[n+]1C`, the AC35 is 1.94 µM.

As for `Cc1ccc(O)c(-c2cc(-c3ccccc3C)[nH]n2)c1`, the AC35 was 10.8 µM.

As for `Cc1ccc(NC2(c3nnnn3-c3c(C)cccc3C)CCCCC2)cc1`, the AC35 is 15.7 µM.

In the case of `O=C1OCC(CO)(CO)N=C1NNc1ccc(Cl)c(Cl)c1`, the AC35 is 19.1 µM.

Consider `COc1ccc(O)c(C(=O)CC(=O)c2ccc(F)cc2)c1`, for which the AC35 was 16.1 µM.

For the compound `CC1(C)C=Cc2c(ccc3c2OC[C@@H](c2ccc(O)cc2O)C3)O1`, the AC35 was 17.8 µM.

`COc1cc(/C=N/O)cc(Br)c1OCc1cccc(Cl)c1`: the AC35 is 29.6 µM.

For the compound `Cn1ccc(=Nc2ccc(NC(=O)c3ccc(N=c4ccn(C)c5ccc([N+](=O)[O-])cc45)cc3)cc2)cc1`, the AC35 is 0.0417 µM.

With `Cc1ccc2oc(-c3ccccc3)c(C(=O)O)c(=O)c2c1`, the AC35 is 16.2 µM.

Consider `COc1cc([N+](=O)[O-])cc(/C=N/NC(=O)c2cncc(Br)c2)c1O`, for which the AC35 was 11.7 µM.

As to `CCN1C(=O)C(CC(=O)Nc2ccccc2Cl)N(NC(=O)c2cccc(F)c2)C1=S` (centres undefined), the AC35 is 21.2 µM.

Regarding `CCN(CC)c1ccc(/C=N/NC(=O)c2c(Cl)cnn2C)c(O)c1`, the AC35 is 3.27 µM.

`CN(C)c1ccc(C=c2c3cc(O)ccc3n3c2cc(-c2ccccc2)[n+]3C)cc1`: the AC35 is 0.127 µM.

As to `[O-][n+]1cccc2c(Br)cc(Br)c(O)c21`, the AC35 was 7.13 µM.

Consider `OCCN(CCO)c1cc2c3ccccc3ccc2c2ccccc12`, for which the AC35 was 1.69 µM.

Take `Cc1cccc(Nc2nc(-c3ccc(O)cc3O)cs2)n1`: the AC35 was 20.3 µM.

As to `CCCCNc1c(-c2ccc(-c3ccc(OC)cc3)c(OC)c2)nc2ccccn12`, the AC35 was 5.67 µM.

On to `O/N=C(\c1ccc(Cl)cc1Cl)c1ncc(C(F)(F)F)cc1Cl`, for which the AC35 was 16.9 µM.

`CC(=O)NC(c1ccc(C)cc1)c1cc([N+](=O)[O-])c2cccnc2c1O` (centres undefined): the AC35 was 10.1 µM.

For `C=C(C)COc1ccc(-c2[nH]ncc2-c2ccccc2)c(O)c1`, the AC35 was 2.91 µM.

Regarding `CCCn1nc(C(=O)N2CCN(S(=O)(=O)c3ccc(C)c(C)c3)CC2)c2ccccc2c1=O`, the AC35 is 11.7 µM.

As for `Cn1nc(C(F)(F)F)c(C#N)c1N1CCN(c2ccc(F)cc2)CC1`, the AC35 was 41.9 µM.

As to `Cc1oc2c(c1C(=O)c1ccccc1)C(=O)C(=O)c1ccccc1-2`, the AC35 was 3.23 µM.

`CCCCCCCn1c(=O)c(C(=O)OC)c(N)c2ccccc21`: the AC35 was 13.6 µM.

For `CCC(C)c1ccc(NC(=S)NCCn2cc(Br)cn2)cc1` (centres undefined), the AC35 was 13.9 µM.

For the compound `CN(c1ccccc1)c1nc(N2CCCC2)nc(-n2ccnc2)n1`, the AC35 is 9.8 µM.

Regarding `Oc1ccccc1-c1cc(-c2ccc3c(c2)OCCO3)n[nH]1`, the AC35 is 15.2 µM.

As for `CN(Cc1ccc(Cl)s1)C(=O)CCl`, the AC35 was 1.69 µM.

Consider `O=c1c2ccccc2c(-c2ccc(O)cc2)nn1-c1cccc(C(F)(F)F)c1`, for which the AC35 was 5.55 µM.

Turning to `CCCCCOc1ccc(CSc2n[nH]c(C)n2)cc1`, the AC35 was 18.6 µM.

For `CC(/C=N/n1c(COc2ccccc2)n[nH]c1=S)=C\c1ccccc1`, the AC35 is 37.3 µM.

For the compound `c1ccc(C(=NNc2nc3ccccc3s2)c2ccccn2)cc1`, the AC35 is 1.5 µM.

Turning to `Clc1ccc(C(Cn2ccnc2)OCc2c(Cl)cccc2Cl)c(Cl)c1` (centres undefined), the AC35 was 2.76 µM.

As to `O=C(CC1CC2CCC1C2)Nc1nc(-c2ccccn2)cs1` (centres undefined), the AC35 is 2.94 µM.

Turning to `COc1ccccc1-c1sc2cc3c(cc2c1C#Cc1cncn1C)OCO3`, the AC35 is 2.48 µM.

For the compound `CC[n+]1c(/C=C/C=C/c2ccc(N(C)C)cc2)sc2ccccc21`, the AC35 was 6.28 µM.

Consider `O=C(OCC(=O)C12CC3CC(CC(C3)C1)C2)c1ccc(O)cc1`, for which the AC35 was 44.4 µM.

In the case of `CC(C)C(=O)NC(c1ccco1)c1ccc2cccnc2c1O` (centres undefined), the AC35 was 2.02 µM.

For the compound `Cc1c(C2(O)CCCCC2)[nH]c2ccc(C(F)(F)F)cc12`, the AC35 was 27.4 µM.

As for `Cc1ccccc1C(=O)NNC(=S)NC(=O)c1ccc(Cl)cc1Cl`, the AC35 is 41.1 µM.

On to `Cc1cc(-c2ccccc2)n(-c2cc(N/N=C/c3ccccc3O)ncn2)n1`, for which the AC35 was 3.99 µM.

Regarding `Cc1nc(SCc2ccc(OCCC(C)C)cc2)n[nH]1`, the AC35 is 16.5 µM.

In the case of `NC(=O)N=Nc1c2[nH]c3ccccc3nc-2c2ccccc12`, the AC35 is 10.7 µM.

As to `Clc1ccc(COC(Cn2ccnc2)c2ccc(Cl)cc2Cl)c(Cl)c1` (centres undefined), the AC35 is 1.2 µM and 1.52 µM.

In the case of `c1ccc(-c2ccc(SCc3cccnc3)nn2)nc1`, the AC35 is 33.1 µM.

With `COc1cc2cnc(-c3ccccc3)c(C(=O)c3ccc(F)cc3)c2cc1OC`, the AC35 was 34.4 µM.

`COc1ccc(N=N/C(=C\O)C(=O)c2cccs2)cc1`: the AC35 was 7.16 µM.

`CC(=O)C1=C(c2ccc(Br)cc2)C(=O)c2ccccc2C1=O`: the AC35 was 0.82 µM.

Consider `COc1ccc2oc(=O)c(-c3csc(Nc4cccc(O)c4)n3)cc2c1`, for which the AC35 is 15.7 µM.

With `C=CCc1ccc(O)c(-c2ccc(O)c(CC=C)c2)c1`, the AC35 is 15.8 µM.

Take `CC1=CC(C)(C)N(S(=O)(=O)c2ccc(C)cc2)c2ccc(C)cc21`: the AC35 is 22.3 µM.

Take `Cc1cc(/C=C2\SC(=S)N(C)C2=O)c(C)n1-c1ccc(O)cc1`: the AC35 is 10.8 µM.

In the case of `COc1cccc(/C=N/Nc2ncnc(Cl)c2N)c1O`, the AC35 is 0.896 µM.

Take `CN(C)c1nc(-c2ccccn2)nnc1-c1ccccc1`: the AC35 was 1.13 µM.

Consider `O=c1c2ccccc2nc(-c2ccc(-c3ccccc3)cc2)n1-c1ccncc1`, for which the AC35 is 3.6 µM.

Turning to `CCCCNC(=S)N/N=C1\CCCCc2ccccc21`, the AC35 is 18.3 µM.

On to `CC12CC3(C)CC(C)(C1)CC(NC(=O)N1CCCC1)(C2)C3`, for which the AC35 was 22.2 µM.

For `COC(=O)C1=C(C)NC(C)=C(C(=O)OCC(C)C)C1c1ccccc1[N+](=O)[O-]` (centres undefined), the AC35 is 4.78 µM.

`COc1ccc(C(=O)On2c(-c3ccc(Br)cc3)nc3ccccc3c2=O)cc1`: the AC35 is 5.71 µM.

As for `O=S(=O)(c1ccc(Cl)cc1)N1CCC2(CC1)OCCN2S(=O)(=O)c1cccs1`, the AC35 was 24.8 µM.

Turning to `O=C(NCc1ccncc1)c1ccccc1Nc1ccc(SC(F)F)cc1`, the AC35 was 21.1 µM.

For `Oc1c(CN2CCCC2)cc(COCc2ccccc2)c2cccnc12`, the AC35 is 13.8 µM.

Regarding `Clc1nc(-c2ccccn2)nc2scc(-c3ccccc3)c12`, the AC35 is 2.34 µM.

In the case of `CCOC(=O)c1cnc(-n2nc(C)cc2C)nc1NC1CCCC1`, the AC35 is 2.6 µM.

Regarding `Cc1c(Cc2ccccc2)c(NCCN(C)C)n2c(nc3ccccc32)c1C#N`, the AC35 was 7.32 µM.

As to `O=C(CSc1ccc(-c2ccccn2)nn1)c1ccccc1`, the AC35 was 20 µM.

Turning to `O=C(Nc1cc(Oc2ccc(Cl)cc2)cc([N+](=O)[O-])c1)c1ccco1`, the AC35 was 6.1 µM.

As to `O=C(/C(=N/N=C/c1ccc(O)c(O)c1O)c1ccccc1)c1ccccc1`, the AC35 was 4.96 µM.

Turning to `COc1cnc(-c2ccccn2)nc1N(C)c1ccccc1`, the AC35 is 0.962 µM.

As for `O=C1c2cc(F)ccc2-n2c1nc1ccccc1c2=O`, the AC35 was less than 0.0235 µM.

For the compound `Cc1ccsc1/C=C/c1ccc2cccc(O)c2n1`, the AC35 is 14.2 µM.

`CC(C)(C)C(=O)C(Oc1ccc(Cl)cc1)n1cncn1` (centres undefined): the AC35 is 36.6 µM.

`Cc1nn(CCC#N)c(N)c1C1(O)C(=O)Nc2c(Cl)cc(Cl)cc21` (centres undefined): the AC35 is 16 µM.

With `Cc1ccc(-n2nnnc2SCC(=O)N2CCc3ccccc3C2)c(C)c1`, the AC35 was 30.7 µM.

Consider `O=C(CN1CC[n+]2c(-c3cccs3)csc21)c1ccc(-c2ccccc2)cc1`, for which the AC35 was 2.39 µM.

As for `COc1cnc(-c2ccccn2)nc1Oc1ccc(C(C)(C)C)cc1`, the AC35 is 2.05 µM.

With `CCCOc1ccc(S(=O)(=O)n2cc(F)c(=O)[nH]c2=O)cc1`, the AC35 is 30.4 µM.

Regarding `C=CCN(CC=C)C(=S)NC(=O)c1ccc(C)c(Br)c1`, the AC35 is 6.98 µM.

For the compound `Cc1ccc(Sc2ccc(NC(=O)CCl)cc2)cc1C`, the AC35 is 0.422 µM.

For the compound `CCCCC(=O)NC(c1ccco1)c1cc(Cl)c2cccnc2c1O` (centres undefined), the AC35 is 1.48 µM.

For `Cc1cc(Cl)ccc1C(=O)C1CCCN(C(=O)c2cncs2)C1` (centres undefined), the AC35 was 26 µM.

Turning to `COc1ccc(-c2cc(C(=O)N3CCN(c4ccccc4F)CC3)c3ccccc3n2)c(OC)c1`, the AC35 is 9.76 µM.

For the compound `C[n+]1c2cc(N)ccc2cc2ccc(N)cc21`, the AC35 is 0.0327 µM.

As for `Oc1ccc(Br)cc1/C=N/Nc1ccccn1`, the AC35 is 2.68 µM.

For the compound `Cc1ccc(Sc2cc(C)nc(-c3ccccn3)n2)cc1`, the AC35 was 3.19 µM.

For the compound `O=C(Nc1ccc(Br)c(C(F)(F)F)c1)c1ccccc1`, the AC35 is 20 µM.

For the compound `Cc1ccc(Cl)cc1NC1=C/C(=N\S(=O)(=O)c2cccs2)c2ccccc2C1=O`, the AC35 is 0.0436 µM.

Regarding `S=C(Nc1ccc(Oc2ccccc2)cc1)NC1CCCCCC1`, the AC35 is 12.7 µM.

Turning to `Nc1cc2c3ccccc3ccc2c2ccccc12`, the AC35 was 1.01 µM.

Turning to `O=[N+]([O-])c1cccc(C=NNc2ccc3ccccc3n2)c1O`, the AC35 is 4.23 µM.

For `O=C(Nc1nc(-c2ccccn2)cs1)c1ccc(Br)s1`, the AC35 is 0.663 µM.

For the compound `COc1cccc(/C=N/Nc2ncnc3scc(-c4ccccc4)c23)c1O`, the AC35 is 1.91 µM.

Regarding `Oc1cccc2ccc(Nc3ccccn3)nc12`, the AC35 is 0.182 µM.

With `O=C(c1ccc(-c2ccccc2)cc1)C1CCCN(C(=O)c2cncs2)C1` (centres undefined), the AC35 is 9.45 µM.

For `C(=C1c2ccccc2-c2ccccc21)c1ccncc1`, the AC35 was 12.1 µM.

Regarding `COc1cnc(-c2ccccn2)nc1Sc1ccccc1`, the AC35 is 4.67 µM.

With `CCC(=O)NC(c1ccco1)c1cc(Cl)c2cccnc2c1O` (centres undefined), the AC35 is 0.484 µM.

On to `O/N=C(\c1ccc(Cl)cc1)c1cc2ccccc2o1`, for which the AC35 is 8.56 µM.

For `C=CCNC(=S)N1CCC(Cc2ccccc2)CC1`, the AC35 was 43.5 µM.
